Literature values as cited in patent US20240398745A1, “COMPOSITION AND METHODS OF TREATMENT USING […] - ENHANCED SUPPLEMENTATION” (Xygenyx Inc., priority 2023, published 2024).
Square brackets hold non-standard residues; d marks the D form. Peptide text beside a SMILES is read from it. Cit = NC(=O)NCCC[C@H](N)C(=O)O

What was measured:
skin [1] = details: topical, concentrations 0.5-5%
[2] = α-tocopherol taken as 1.0
[3] = in vivo
skin [4] = details: topical formulations, within four weeks of treatment
[5] = in vivo; remark: listed apart in the source
[6] = test system: wide dynamic range neurons in the ventroposterolateral nucleus of the thalamus; details: believed
[7] = even when dietary intake occurs in equal portions

C=CCCCCCCCCC(=O)N[C@@H](Cc1ccccc1)C(=O)O [UP, Undecylenoyl phenylalanine]
time of treatment to skin lightening effects (skin [1]): ≥ 7 days

Cc1cc(O)cc2c1O[C@](C)(CCC[C@H](C)CCC[C@H](C)CCCC(C)C)CC2 [δ-tocopherol]
relative biological activity [2]: 0.03

HGH: hormone comprising a peptide chain that is synthesized in the pituitary gland
biological half-life [3]: 10-20 minutes

CC[C@H](C)[C@H](NC(=O)[C@H](CC(=O)O)NC(=O)[C@@H](N)CCCCN)C(=O)N[C@@H](CCCNC(N)=O)C(N)=O [tripeptide-10 citrulline, Tripeptide-10 citrulline] (H-KDI[Cit]-NH2)
improvement of suppleness (skin [4]): ≤ 54%

Cc1c(C)c2c(c(C)c1O)CC[C@@](C)(CCC[C@H](C)CCC[C@H](C)CCCC(C)C)O2 [α-tocopherol]
reduction of risk of coronary disease (dietary supplementation, doses up to 400 IU/day): up to 34%
reduction of risk of developing neurodegenerative diseases such as Alzheimer's Syndrome or dementia (dietary supplementation, doses up to 400 IU/day, controlled trials): ≤ 24%
reduction in the development of age-related cataracts (in combination with 10-20 mg β-carotene and 400-500 mg vitamin C, doses around 400-500 IU): 23%

CCNC(=O)CC[C@H](N)C(=O)O [Theanine]
dose generally considered safe and well-tolerated [5]: up to 400 mg per day

Cc1cc(O)c(C)c2c1O[C@](C)(CCC[C@H](C)CCC[C@H](C)CCCC(C)C)CC2 [β-tocopherol]
relative biological activity [2]: 0.5

CCCCCc1cc(O)c2c(c1)OC(C)(C)C1CCC(C)=CC21 (stereo not drawn) [THC, Δ-9-tetrahydrocannabinol]
power in mediating pain relative to morphine [6]: ten times more powerful than morphine

Cc1c(O)cc2c(c1C)O[C@](C)(CCC[C@H](C)CCC[C@H](C)CCCC(C)C)CC2 [γ-tocopherol]
relative biological activity [2]: 0.1
concentration in vivo relative to α-tocopherol [7]: roughly 10%
